Measured values taken from PubChem BioAssay (NCI).
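48-hour exposure; five concentrations; linearly interpolated endpoints. At the TGI there is no net growth.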

Legend:
Experiment in all cases: inhibition of tumour cell growth, NCI panel, 48 h
[1] = test system: NCI-H23 lung
[2] = test system: U251 CNS
[3] = test system: HOP-62 NSCLC
[4] = test system: SF-539 CNS
[5] = test system: CAKI-1 renal
[6] = test system: K-562 leukemia
[7] = test system: M19-MEL melanoma
[8] = test system: HCT-15 colon
[9] = test system: SF-295 CNS
[10] = test system: COLO 205 colon
[11] = test system: M14 melanoma
[12] = test system: RXF-631 renal
[13] = test system: KM12 colon
[14] = test system: UACC-62 melanoma
[15] = test system: RPMI-8226 leukemia
[16] = test system: DMS 114 small cell lung
[17] = test system: SF-268 CNS
[18] = test system: NCI-H226 lung
[19] = test system: 786-0 renal
[20] = test system: RXF 393 renal
[21] = test system: KM20L2 colon
[22] = test system: XF 498 CNS
[23] = test system: HCT-116 colon
[24] = test system: HOP-92 NSCLC
[25] = test system: MALME-3M melanoma
[26] = test system: MOLT-4 leukemia
[27] = test system: EKVX NSCLC
[28] = test system: SK-MEL-2 melanoma
[29] = test system: DMS 273 small cell lung
[30] = test system: OVCAR-3 ovarian
[31] = test system: SN12C renal
[32] = test system: SW-620 colon
[33] = test system: SNB-19 CNS
[34] = test system: CCRF-CEM leukemia
[35] = test system: DLD-1 colon
[36] = test system: HL-60(TB) leukemia
[37] = test system: A498 renal
[38] = test system: SNB-78 CNS
[39] = test system: SK-MEL-5 melanoma
[40] = test system: OVCAR-5 ovarian
[41] = test system: HT29 colon
[42] = test system: UACC-257 melanoma
[43] = test system: LXFL 529 NSCLC
[44] = test system: UO-31 renal
[45] = test system: HCC-2998 colon
[46] = test system: A549 NSCLC
[47] = test system: IGROV1 ovarian
[48] = test system: SK-OV-3 ovarian
[49] = test system: OVCAR-8 ovarian
[50] = test system: NCI-H522 lung
[51] = test system: OVCAR-4 ovarian
[52] = test system: SNB-75 CNS
[53] = test system: ACHN renal
[54] = test system: SK-MEL-28 melanoma
[55] = test system: HOP-18 NSCLC
[56] = test system: LOX IMVI melanoma
[57] = test system: TK-10 renal
[58] = test system: NCI-H460 lung
[59] = test system: SR leukemia
[60] = test system: PC-3 prostate
[61] = test system: MCF7 breast
[62] = test system: BT-549 breast
[63] = test system: MDA-MB-231 breast
[64] = test system: T-47D breast
[65] = test system: HS 578T breast
[66] = test system: MDA-MB-435
[67] = test system: NCI/ADR-RES ovarian
[68] = test system: DU-145 prostate
[69] = test system: MDA-N

## O=C1C(Br)=C[C@H]2C3C=CC(Br)(C3=O)[C@@H]12 (some centres undefined)
[1]
  TGI: 25 µM
[2]
  TGI: 27.3 µM
[3]
  TGI: 92.5 µM
[4]
  TGI: 39.4 µM
[5]
  TGI: 24 µM
[6]
  TGI: > 100 µM
[7]
  TGI: 24.8 µM
[8]
  TGI: 24.6 µM
[9]
  TGI: 51 µM
[10]
  TGI: 21.4 µM
[11]
  TGI: 21.6 µM
[12]
  TGI: 50.1 µM
[13]
  TGI: 24.4 µM
[14]
  TGI: 14.9 µM
[15]
  TGI: > 100 µM
[16]
  TGI: 28.3 µM
[17]
  TGI: 43.6 µM
[18]
  TGI: 40.9 µM
[19]
  TGI: 48.2 µM
[20]
  TGI: 27.3 µM
[21]
  TGI: 18.2 µM
[22]
  TGI: 31.2 µM
[23]
  TGI: 22.8 µM
[24]
  TGI: 29.7 µM
[25]
  TGI: 26.2 µM
[26]
  TGI: 27.2 µM
[27]
  TGI: 28.8 µM
[28]
  TGI: 28.4 µM
[29]
  TGI: 27 µM
[30]
  TGI: 27.1 µM
[31]
  TGI: 25.9 µM
[32]
  TGI: 21.1 µM
[33]
  TGI: 32.6 µM
[34]
  TGI: 13.7 µM
[35]
  TGI: 20.5 µM
[36]
  TGI: 23 µM
[37]
  TGI: 37.9 µM
[38]
  TGI: > 100 µM
[39]
  TGI: 27.2 µM
[40]
  TGI: 29 µM
[41]
  TGI: 23.8 µM
[42]
  TGI: 24.8 µM
[43]
  TGI: 21.8 µM
[44]
  TGI: 31.1 µM
[45]
  TGI: 26.2 µM
[46]
  TGI: 76.9 µM
[47]
  TGI: 29.4 µM
[48]
  TGI: > 100 µM
[49]
  TGI: 26 µM
[50]
  TGI: 18.2 µM
[51]
  TGI: 29.4 µM
[52]
  TGI: 92.8 µM
[53]
  TGI: 34.3 µM
[54]
  TGI: 25.7 µM
[55]
  TGI: > 100 µM

## COC(=O)c1c(-c2ccccc2)cc2c3cc(-c4ccccc4)c(C(=O)OC)n3c3ccccc3n12
[1]
  TGI: > 100 µM
[2]
  TGI: > 100 µM
[56]
  TGI: > 100 µM
[3]
  TGI: > 100 µM
[4]
  TGI: > 100 µM
[5]
  TGI: > 100 µM
[6]
  TGI: > 100 µM
[7]
  TGI: > 100 µM
[8]
  TGI: > 100 µM
[9]
  TGI: > 100 µM
[10]
  TGI: > 100 µM
[11]
  TGI: > 100 µM
[12]
  TGI: > 100 µM
[13]
  TGI: > 100 µM
[14]
  TGI: > 100 µM
[15]
  TGI: > 100 µM
[16]
  TGI: > 100 µM
[17]
  TGI: > 100 µM
[18]
  TGI: > 100 µM
[19]
  TGI: > 100 µM
[20]
  TGI: > 94.7 µM
[21]
  TGI: > 100 µM
[22]
  TGI: > 100 µM
[23]
  TGI: > 100 µM
[25]
  TGI: > 100 µM
[26]
  TGI: > 100 µM
[27]
  TGI: > 100 µM
[28]
  TGI: > 100 µM
[29]
  TGI: > 100 µM
[30]
  TGI: > 100 µM
[31]
  TGI: > 100 µM
[32]
  TGI: > 100 µM
[33]
  TGI: > 100 µM
[34]
  TGI: > 100 µM
[35]
  TGI: > 100 µM
[36]
  TGI: > 100 µM
[37]
  TGI: > 100 µM
[38]
  TGI: > 100 µM
[39]
  TGI: > 100 µM
[40]
  TGI: > 100 µM
[41]
  TGI: > 100 µM
[42]
  TGI: > 100 µM
[43]
  TGI: > 100 µM
[44]
  TGI: > 100 µM
[45]
  TGI: > 100 µM
[46]
  TGI: > 100 µM
[47]
  TGI: > 100 µM
[48]
  TGI: > 100 µM
[49]
  TGI: > 100 µM
[57]
  TGI: > 100 µM
[50]
  TGI: > 100 µM
[51]
  TGI: > 31.6 µM
[52]
  TGI: 91.6 µM
[53]
  TGI: > 100 µM
[54]
  TGI: > 100 µM
[58]
  TGI: > 100 µM
[55]
  TGI: > 100 µM

## C=CCCCCCCCCCCCC1CCC(CC)N1 (centres undefined)
[1]
  TGI: 28.6 µM
[2]
  TGI: 25.5 µM
[56]
  TGI: 24.5 µM
[3]
  TGI: 28.5 µM
[4]
  TGI: 25.3 µM
[5]
  TGI: 25.4 µM
[6]
  TGI: 28.1 µM
[7]
  TGI: 16.2 µM
[8]
  TGI: 12.9 µM
[9]
  TGI: 27.8 µM
[10]
  TGI: 14.7 µM
[11]
  TGI: 24.6 µM
[12]
  TGI: 23.5 µM
[13]
  TGI: 13.1 µM
[14]
  TGI: 29.4 µM
[15]
  TGI: 31.9 µM
[16]
  TGI: 14.7 µM
[17]
  TGI: 46.6 µM
[18]
  TGI: 49.1 µM
[19]
  TGI: 21.8 µM
[20]
  TGI: 16.5 µM
[21]
  TGI: 15.8 µM
[23]
  TGI: 20.1 µM
[25]
  TGI: 31.4 µM
[26]
  TGI: 17 µM
[27]
  TGI: 31.4 µM
[28]
  TGI: 29.5 µM
[29]
  TGI: 5.92 µM
[30]
  TGI: 23 µM
[31]
  TGI: 24.3 µM
[32]
  TGI: 24.6 µM
[33]
  TGI: 36.3 µM
[34]
  TGI: 29 µM
[35]
  TGI: 15.5 µM
[36]
  TGI: 9.01 µM
[37]
  TGI: 38.4 µM
[38]
  TGI: 37.8 µM
[39]
  TGI: 25.5 µM
[40]
  TGI: 22.6 µM
[41]
  TGI: 14 µM
[42]
  TGI: 28 µM
[43]
  TGI: 26 µM
[44]
  TGI: 23.8 µM
[45]
  TGI: 8.04 µM
[46]
  TGI: 24.8 µM
[47]
  TGI: 25.9 µM
[48]
  TGI: 31.6 µM
[57]
  TGI: 32.1 µM
[50]
  TGI: 13.5 µM
[51]
  TGI: 21.3 µM
[52]
  TGI: 33.9 µM
[53]
  TGI: 31.1 µM
[59]
  TGI: 7.12 µM
[54]
  TGI: 29.6 µM
[58]
  TGI: 40.7 µM
[55]
  TGI: 25.2 µM

## NC(=O)c1c[se]c(C2OC(CO)C(O)C2O)n1 (centres undefined)
[60]
  TGI: > 100 µM
[1]
  TGI: > 100 µM
[2]
  TGI: > 100 µM
[56]
  TGI: > 100 µM
[3]
  TGI: > 100 µM
[4]
  TGI: > 71.8 µM
[5]
  TGI: > 100 µM
[61]
  TGI: > 100 µM
[6]
  TGI: > 100 µM
[7]
  TGI: > 100 µM
[8]
  TGI: > 100 µM
[9]
  TGI: > 49.8 µM
[10]
  TGI: > 100 µM
[11]
  TGI: > 100 µM
[12]
  TGI: > 100 µM
[13]
  TGI: > 45 µM
[14]
  TGI: > 100 µM
[15]
  TGI: > 100 µM
[16]
  TGI: > 100 µM
[17]
  TGI: > 100 µM
[18]
  TGI: > 100 µM
[19]
  TGI: > 100 µM
[22]
  TGI: > 100 µM
[23]
  TGI: 55 µM
[24]
  TGI: > 100 µM
[25]
  TGI: > 100 µM
[26]
  TGI: > 49 µM
[27]
  TGI: > 100 µM
[62]
  TGI: > 100 µM
[28]
  TGI: > 100 µM
[29]
  TGI: > 100 µM
[63]
  TGI: > 100 µM
[30]
  TGI: > 59 µM
[31]
  TGI: > 100 µM
[32]
  TGI: > 100 µM
[33]
  TGI: > 100 µM
[34]
  TGI: > 100 µM
[35]
  TGI: > 100 µM
[36]
  TGI: > 100 µM
[37]
  TGI: > 100 µM
[39]
  TGI: > 100 µM
[40]
  TGI: > 100 µM
[41]
  TGI: > 100 µM
[42]
  TGI: > 100 µM
[64]
  TGI: > 100 µM
[43]
  TGI: > 100 µM
[44]
  TGI: > 100 µM
[65]
  TGI: > 100 µM
[45]
  TGI: > 100 µM
[46]
  TGI: > 100 µM
[47]
  TGI: > 100 µM
[48]
  TGI: > 100 µM
[49]
  TGI: > 100 µM
[66]
  TGI: > 100 µM
[67]
  TGI: > 100 µM
[57]
  TGI: > 100 µM
[68]
  TGI: > 100 µM
[50]
  TGI: > 100 µM
[51]
  TGI: > 100 µM
[52]
  TGI: > 100 µM
[53]
  TGI: > 100 µM
[59]
  TGI: > 100 µM
[54]
  TGI: > 100 µM
[58]
  TGI: > 100 µM
[69]
  TGI: > 100 µM
[55]
  TGI: > 100 µM
